Experimental data as given in patent publication US20040102444A1, “Method for delivering drugs to the retina” (priority 2002, published 2004).

Key:
[1] = test system: other RTKs including VEGF receptors; experiment: standard tyrosine kinase assay, other RTKs; type: biochemical
PDGF receptors = experiment: cellular autophosphorylation assay, transfected Chinese hamster ovary cells; type: cell-based
Experimental: (§1) In vivo activity requires drugs to enter cells and therefore agents are tested in cellular autophosphorylation assays, using Chinese hamster ovary cells transfected with one of several RTK genes.

[2] = test system: other receptors tested including VEGF receptors; experiment: as above
Experimental: as §1

Flt-1 = target: T1, Flt-1 (Homo sapiens, UniProt P17948); experiment: standard tyrosine kinase assay: phosphorylation of poly(GluTyr) by GST-fusion kinase domain; type: biochemical
T1 construct: GST-fusion proteins of the kinase domains of several tyrosine kinase receptors; GST
T1 sequence (P17948 827-1158 limits assumed): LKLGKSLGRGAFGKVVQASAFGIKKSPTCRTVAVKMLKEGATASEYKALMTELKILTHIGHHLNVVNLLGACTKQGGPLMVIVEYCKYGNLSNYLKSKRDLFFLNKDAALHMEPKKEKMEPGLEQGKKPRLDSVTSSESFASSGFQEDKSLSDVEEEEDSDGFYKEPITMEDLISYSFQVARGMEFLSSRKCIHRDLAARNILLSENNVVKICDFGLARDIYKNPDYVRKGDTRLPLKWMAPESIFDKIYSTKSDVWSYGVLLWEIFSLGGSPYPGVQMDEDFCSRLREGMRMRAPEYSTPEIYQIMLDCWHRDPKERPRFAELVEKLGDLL

c-Kit = c-Kit (Homo sapiens, UniProt P10721); settings: transfected Chinese hamster ovary cells
C57BL/6 mice = experiment: VEGF-induced BRB breakdown measured with [3H]mannitol as tracer after topical administration; type: in vivo; settings: suspension topically in one eye twice a day for 3 days prior to intraocular injection of VEGF
Experimental: Intraocular injections are performed with a Harvard pump microinjection apparatus and pulled glass micropipets. Each micropipet is calibrated to deliver 1 μL of vehicle upon depression of a foot switch. Mice are anesthetized with 25 mg/kg of ketamine and 4 mg/kg of xylazine, pupils are dilated with 1% tropicamide. Under a dissecting microscope, the sharpened tip of a micropipet is passed through the sclera just behind the limbus into the vitreous cavity, and the foot switch is depressed and 1 μL of 10^−6 M human VEGF (R&D Systems, Minneapolis, Minn.) is injected.
Six or 24 hours after intraocular injections, mice are given an intraperitoneal injection of 1 μCi/g body weight of [^3H]mannitol (New England Nuclear, Boston, Mass.). After one hour, mice are sacrificed and eyes are removed. The cornea and lens are removed and the entire retina is carefully dissected from the eyecup and placed within pre-weighed scintillation vials. […] All liquid is removed from the vials and remaining droplets are allowed to evaporate over 20 minutes. The vials are weighed and the tissue weights are recorded. One mL of NCSII solubilizing solution (Amersham, Chicago, Ill.) is added to each vial and the vials are incubated overnight in a 50° C. water bath. The solubilized tissue is brought to RT and decolorized with 20% benzoyl peroxide in toluene in a 50° C. water bath. […]

VEGF receptors = experiment: cellular autophosphorylation assay, transfected Chinese hamster ovary cells
Experimental: as §1

c-erbB2 = c-erbB2 (Homo sapiens, UniProt P04626); experiment: as above
Experimental: as §1

insulin receptor = insulin receptor (Homo sapiens, UniProt P06213); experiment: as above
insulin receptor, sequence (P06213 28-1382, species assumed): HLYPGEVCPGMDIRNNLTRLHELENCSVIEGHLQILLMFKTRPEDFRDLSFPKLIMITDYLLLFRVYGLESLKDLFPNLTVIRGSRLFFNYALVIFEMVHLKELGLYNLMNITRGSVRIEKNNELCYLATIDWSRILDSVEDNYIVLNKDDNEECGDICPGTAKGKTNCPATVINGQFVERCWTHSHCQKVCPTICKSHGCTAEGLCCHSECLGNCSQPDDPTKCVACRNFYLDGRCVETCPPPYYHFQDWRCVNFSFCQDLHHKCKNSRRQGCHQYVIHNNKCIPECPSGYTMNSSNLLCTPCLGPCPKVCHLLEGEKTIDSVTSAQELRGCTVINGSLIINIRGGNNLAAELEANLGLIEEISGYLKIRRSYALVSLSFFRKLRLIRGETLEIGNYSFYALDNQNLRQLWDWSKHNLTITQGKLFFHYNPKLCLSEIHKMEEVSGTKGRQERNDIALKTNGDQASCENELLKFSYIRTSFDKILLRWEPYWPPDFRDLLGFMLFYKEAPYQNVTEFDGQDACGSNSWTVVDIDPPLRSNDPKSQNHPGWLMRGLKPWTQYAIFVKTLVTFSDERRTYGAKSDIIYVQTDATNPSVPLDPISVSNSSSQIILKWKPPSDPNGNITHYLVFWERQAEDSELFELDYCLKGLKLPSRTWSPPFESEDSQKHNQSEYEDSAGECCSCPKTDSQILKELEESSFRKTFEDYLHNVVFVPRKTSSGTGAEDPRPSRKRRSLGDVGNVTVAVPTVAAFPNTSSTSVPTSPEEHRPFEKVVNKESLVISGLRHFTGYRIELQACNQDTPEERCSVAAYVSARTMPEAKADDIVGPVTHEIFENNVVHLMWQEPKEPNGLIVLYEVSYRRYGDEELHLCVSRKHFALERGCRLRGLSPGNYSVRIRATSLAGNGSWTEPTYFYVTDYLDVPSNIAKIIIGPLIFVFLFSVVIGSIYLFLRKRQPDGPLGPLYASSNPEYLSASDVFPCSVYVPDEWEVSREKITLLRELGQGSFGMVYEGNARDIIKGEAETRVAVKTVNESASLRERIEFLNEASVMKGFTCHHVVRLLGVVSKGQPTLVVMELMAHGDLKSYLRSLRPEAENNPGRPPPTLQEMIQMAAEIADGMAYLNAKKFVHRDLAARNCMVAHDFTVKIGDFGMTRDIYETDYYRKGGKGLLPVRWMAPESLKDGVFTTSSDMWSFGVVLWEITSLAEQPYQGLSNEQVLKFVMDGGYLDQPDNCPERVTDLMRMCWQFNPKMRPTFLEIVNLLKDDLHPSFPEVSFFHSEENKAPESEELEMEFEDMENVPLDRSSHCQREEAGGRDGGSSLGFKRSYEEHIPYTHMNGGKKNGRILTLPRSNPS
Experimental: as §1

c-Kit, sequence (P10721 26-976): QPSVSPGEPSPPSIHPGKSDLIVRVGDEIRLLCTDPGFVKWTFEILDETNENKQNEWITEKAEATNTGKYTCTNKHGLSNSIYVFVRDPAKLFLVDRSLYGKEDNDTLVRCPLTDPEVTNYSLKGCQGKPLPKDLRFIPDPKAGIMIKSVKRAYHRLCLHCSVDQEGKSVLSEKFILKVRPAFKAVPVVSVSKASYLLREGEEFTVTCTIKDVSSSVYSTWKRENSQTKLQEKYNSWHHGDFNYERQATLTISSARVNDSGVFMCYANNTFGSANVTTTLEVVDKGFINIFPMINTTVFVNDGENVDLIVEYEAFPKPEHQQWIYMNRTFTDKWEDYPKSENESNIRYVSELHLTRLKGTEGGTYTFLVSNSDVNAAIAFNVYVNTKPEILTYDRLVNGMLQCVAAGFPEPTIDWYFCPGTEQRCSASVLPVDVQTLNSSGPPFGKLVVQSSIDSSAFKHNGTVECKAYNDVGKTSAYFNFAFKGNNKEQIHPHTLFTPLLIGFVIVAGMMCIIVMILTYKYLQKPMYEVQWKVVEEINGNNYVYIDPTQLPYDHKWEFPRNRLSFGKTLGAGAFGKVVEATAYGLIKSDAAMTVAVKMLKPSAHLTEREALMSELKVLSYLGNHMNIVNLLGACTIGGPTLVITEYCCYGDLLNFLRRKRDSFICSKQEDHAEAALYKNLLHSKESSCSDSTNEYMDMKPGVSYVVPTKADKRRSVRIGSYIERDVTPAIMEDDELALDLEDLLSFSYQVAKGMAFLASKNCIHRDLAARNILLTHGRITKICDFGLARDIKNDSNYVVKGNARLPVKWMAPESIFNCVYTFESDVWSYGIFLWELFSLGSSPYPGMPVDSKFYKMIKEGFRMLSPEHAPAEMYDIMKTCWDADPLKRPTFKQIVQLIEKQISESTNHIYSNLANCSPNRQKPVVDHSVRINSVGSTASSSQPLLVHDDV
c-erbB2, sequence (P04626 23-1255): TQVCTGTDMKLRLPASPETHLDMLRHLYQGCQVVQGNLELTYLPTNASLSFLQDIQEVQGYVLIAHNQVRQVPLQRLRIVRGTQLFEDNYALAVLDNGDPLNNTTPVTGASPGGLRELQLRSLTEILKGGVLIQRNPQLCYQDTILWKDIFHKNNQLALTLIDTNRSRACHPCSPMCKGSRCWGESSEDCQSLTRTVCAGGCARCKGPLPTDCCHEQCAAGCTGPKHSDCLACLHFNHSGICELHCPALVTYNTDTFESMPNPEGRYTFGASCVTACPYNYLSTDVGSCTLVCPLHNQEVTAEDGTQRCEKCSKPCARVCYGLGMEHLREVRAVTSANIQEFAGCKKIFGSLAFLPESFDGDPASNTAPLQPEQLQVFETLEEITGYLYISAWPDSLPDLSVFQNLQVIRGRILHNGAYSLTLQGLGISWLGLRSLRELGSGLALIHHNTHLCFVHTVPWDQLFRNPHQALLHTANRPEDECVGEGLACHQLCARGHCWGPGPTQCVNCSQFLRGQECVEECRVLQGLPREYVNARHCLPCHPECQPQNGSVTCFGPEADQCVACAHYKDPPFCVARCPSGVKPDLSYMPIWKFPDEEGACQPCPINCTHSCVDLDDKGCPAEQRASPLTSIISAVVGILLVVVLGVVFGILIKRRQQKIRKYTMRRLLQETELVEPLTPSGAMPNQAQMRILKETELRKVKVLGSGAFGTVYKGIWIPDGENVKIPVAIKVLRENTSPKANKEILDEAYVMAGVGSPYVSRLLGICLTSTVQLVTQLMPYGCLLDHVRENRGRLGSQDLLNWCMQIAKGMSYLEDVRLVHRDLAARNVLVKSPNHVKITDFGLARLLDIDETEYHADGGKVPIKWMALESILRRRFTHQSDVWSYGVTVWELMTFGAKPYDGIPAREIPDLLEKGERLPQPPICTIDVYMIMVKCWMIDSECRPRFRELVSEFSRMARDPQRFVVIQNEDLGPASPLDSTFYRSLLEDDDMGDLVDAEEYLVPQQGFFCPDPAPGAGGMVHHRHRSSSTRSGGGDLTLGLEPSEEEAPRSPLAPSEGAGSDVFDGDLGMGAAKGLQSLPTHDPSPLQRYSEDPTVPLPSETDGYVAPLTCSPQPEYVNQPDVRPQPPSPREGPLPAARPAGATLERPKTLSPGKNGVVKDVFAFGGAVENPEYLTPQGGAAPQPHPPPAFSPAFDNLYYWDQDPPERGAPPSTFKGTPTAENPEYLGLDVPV

Structure (SMILES) | inhibitory activity of other RTKs including VEGF receptors [1] | inhibition of autophosphorylation of PDGF receptors (PDGF receptors) | inhibition of autophosphorylation of other receptors tested including VEGF receptors [2] | inhibition of phosphorylation by the kinase domain of human VEGF receptor 1 (Flt-1) | inhibition of autophosphorylation of c-Kit (c-Kit) | RRLR compared to contralateral eyes in the same mice (C57BL/6 mice) | inhibition of autophosphorylation of VEGF receptors (VEGF receptors) | inhibition of autophosphorylation of c-erbB2 (c-erbB2) | inhibition of autophosphorylation of insulin receptor (insulin receptor)
Cc1ccc(NC(=O)c2ccccc2)cc1Nc1nccc(-c2cccnc2)n1 [CGP 53 716] | little or no inhibitory activity | potent inhibitors | poor inhibitors | – | – | – | – | – | –
Clc1ccc(Nc2nnc(Cc3ccncc3)c3ccccc23)cc1 [PTK 787] | – | inhibits autophosphorylation | – | good inhibitor | inhibits autophosphorylation | not a significant difference | inhibits autophosphorylation | poor inhibitor | poor inhibitor
Cc1ccc(NC(=O)c2ccc(CN3CCN(C)CC3)cc2)cc1Nc1nccc(-c2cccnc2)n1 [CGP 57 148] | little or no inhibitory activity | potent inhibitors | poor inhibitors | – | – | – | – | – | –
